Laboratory results taken from patent US20120251595A1, “EMULSION TEMPLATE METHOD TO FORM SMALL PARTICLES OF HYDROPHOBIC AGENTS WITH SURFACE ENRICHED HYDROPHILICITY BY ULTRA RAPID FREEZING” (BOARD OF REGENTS, THE UNIVERSITY OF TEXAS SYSTEM, priority 2009, published 2012).
In brackets after ≈: the same amount, converted by molar mass.

Tests used:
[1] = X-ray photoelectron spectroscopy (XPS) of particle surface composition; type: physicochemical
Method: […]
Powders containing ITZ were prepared according to procedures outlined in Examples 1, 2, 3, and 4 with the same formulations. The elemental composition of the particle surfaces was determined using X-ray photoelectron spectroscopy (XPS). […] Percent surface excess of ITZ was calculated by deducting 50% from the percent surface compositions of ITZ while percent surface excess of lecithin was calculated by deducting 25% from the percent surface compositions of lecithin. […]

[2] = cited from earlier work
[3] = Solubility and pKa of itraconazole; type: physicochemical; conditions: pH 1.2 dissolution media, simulated gastric fluid, thermodynamic from solid, crystalline ITZ, read-out: Equilibrium solubility Ceq
Source text: This study compares the effectiveness of fine emulsion templating and co-solvent approaches with the URF process to enhance the wetting and solubility of the model drug, itraconazole (ITZ). Itraconazole (ITZ) is a weakly basic broad-spectrum triazole antifungal agent indicated in the treatment of both local and systemic fungal infections; however, successful treatment of infections is often complicated by its low aqueous solubility resulting in variable absorption and plasma concentration. Classified as a BCS class II compound, ITZ has a strongly pH dependent solubility (pKa˜3.7) with reported solubilities in acidic and neutral media of approximately 4 μg/mL and 1 ng/mL, respectively. While limited by poor aqueous solubility, the highly lipophilic nature of the compound allows for high permeability of intestinal membranes. […]

CCC(C)n1ncn(-c2ccc(N3CCN(c4ccc(OCC5COC(Cn6cncn6)(c6ccc(Cl)cc6Cl)O5)cc4)CC3)cc2)c1=O (stereo not shown) [ITZ, itraconazole]
Mass Concentration Chlorine, SOL [1]: 9.54%
Surface composition ITZ, SOL [1]: 100.0%
pKa [2]: ~3.7
solubility thermodynamic [3]: 5 µg/mL (≈ 7.09 µM)
